Drawing on US20260184712A1, “Heterocyclic Compounds as ENT Inhibitors and Compounds for Use in the Treatment of Cancers” (iTeos Belgium SA, priority 2022, published 2026), this text covers IC50 for 54 molecules.

The target of this assay is T1, human ENT1 (Homo sapiens, UniProt Q99808).
T1 construct: JAR cells expressing ENT1 were purchased from ATCC; host or cells: JAR cells
T1 sequence (Q99808 1-456): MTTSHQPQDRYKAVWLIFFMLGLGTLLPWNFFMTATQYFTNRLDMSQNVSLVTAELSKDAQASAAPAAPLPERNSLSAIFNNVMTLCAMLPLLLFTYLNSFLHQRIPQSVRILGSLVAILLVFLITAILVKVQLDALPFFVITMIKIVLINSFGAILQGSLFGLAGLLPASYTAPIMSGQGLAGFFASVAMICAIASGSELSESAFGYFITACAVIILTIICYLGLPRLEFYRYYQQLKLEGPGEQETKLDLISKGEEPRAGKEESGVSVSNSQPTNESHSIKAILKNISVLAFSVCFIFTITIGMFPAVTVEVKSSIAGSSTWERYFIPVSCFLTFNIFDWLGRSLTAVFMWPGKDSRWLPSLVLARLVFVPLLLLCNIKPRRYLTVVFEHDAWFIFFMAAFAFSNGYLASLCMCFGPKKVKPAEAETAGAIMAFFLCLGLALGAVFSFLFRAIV
Kind of assay: ENT1 binding assay (competition with Sahenta-DY647 on JAR cells). The settings on record: competition with SAHENTA-DY647 binding; IC50 categorized; read-out: Binding Assay IC50. The method in brief: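 Whole-cell competition on JAR cells (native ENT1): 50,000 cells pre-incubated 30 min at 4 °C with compound in HBSS/10 mM Hepes/0.1% BSA, then 100 nM Sahenta-DY647 added for 30 min at 4 °C. After washing, fluorescence (Ex 630/Em 670 nm) read; IC50 from sigmoidal fit, averaged as pIC50.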

By IC50 is commonly meant the concentration needed to halve the response being measured. With `Cc1c(N[C@@H]2O[C@H](C)[C@@H](O)[C@H]2O)ncnc1OCCc1ccc([N+](=O)[O-])cc1` [Compound 345], the concentration for half-maximal inhibition (IC50) is greater than 500 nM. As for `C[C@H]1O[C@@H](n2cnc3c(NCc4ccc5ncccc5c4)ncnc32)[C@H](O)[C@@H]1O` [Compound 376], the figure is greater than 500 nM; as for `C[C@H]1O[C@@H](n2c(N[C@H]3CC[C@@](C)(O)CC3)nc3c(OCc4ccc(C(F)(F)F)cc4)ncnc32)[C@H](O)[C@@H]1O` [Compound 126], 1 to 20 nM; as for `C[C@H]1O[C@@H](n2cnc3c(C(=O)Nc4ccc([N+](=O)[O-])cc4)ncnc32)[C@H](O)[C@@H]1O` [Compound 341], greater than 500 nM. As to `COc1ccc(COc2ncnc3c2ncn3[C@@H]2O[C@H](C)[C@@H](O)[C@H]2O)cc1` [Compound 231], the half-inhibitory concentration (IC50) is greater than 500 nM. Regarding `C[C@H]1O[C@@H](n2cnc3c(-n4cc(-c5ccc([N+](=O)[O-])cc5)nn4)ncnc32)[C@H](O)[C@@H]1O` [Compound 416], the IC50 is greater than 500 nM. As for `COCCCNc1nc2c(N3CCc4ccc([N+](=O)[O-])cc4C3)ncnc2n1[C@@H]1O[C@H](C)[C@@H](O)[C@H]1O` [Compound 146], the figure is 1 to 20 nM; as for `C[C@H]1O[C@@H](n2cnc3c(SCc4cccc(OC5CC5)c4)ncnc32)[C@H](O)[C@@H]1O` [Compound 306], greater than 500 nM; as for `C[C@H]1O[C@@H](n2cnc3c(SCc4ccc5ccncc5c4)ncnc32)[C@H](O)[C@@H]1O` [Compound 308], greater than 500 nM.

Take `C[C@H]1O[C@@H](n2c(NCCCO)nc3c(OCc4ccc(C#N)cc4)ncnc32)[C@H](O)[C@@H]1O` [Compound 43]: the IC50 lay within 20 to 500 nM. Then `CC1OC(n2c(NC3CCC(C)(O)CC3)nc3c(OCc4ccc([N+](=O)[O-])cc4)ncnc32)C(O)C1O` (single isomer, unassigned) [Compound 117], with 1 to 20 nM; and `O=[N+]([O-])c1ccc(CSc2ncnc3c2ncn3[C@@H]2O[C@H](CO)C[C@H]2O)cc1` [Compound 216], with 20 to 500 nM. Turning to `C[C@H]1O[C@@H](n2cnc3c(SCc4nc5ccccc5o4)ncnc32)[C@H](O)[C@@H]1O` [Compound 392], the IC50 is greater than 500 nM. Then `C[C@H]1O[C@@H](n2c(NCCO)nc3c(OCc4ccc(C#N)cc4)ncnc32)[C@H](O)[C@@H]1O` [Compound 41], with 20 to 500 nM; and `Cc1cn(C2OC(C)C(O)C2O)c2ncnc(SCc3ccc([N+](=O)[O-])cc3)c12` (single isomer, unassigned) [Compound 194], with 20 to 500 nM. On to `NC(=O)[C@H]1O[C@@H](n2cnc3c(SCc4ccc([N+](=O)[O-])cc4)ncnc32)[C@H](O)[C@@H]1O` [Compound 243], for which the half-inhibitory concentration (IC50) is greater than 500 nM. Then `CNS(=O)(=O)c1ccc(CSc2ncnc3c2ncn3[C@@H]2O[C@H](C)[C@@H](O)[C@H]2O)cc1` [Compound 297], with greater than 500 nM.

`C[C@H]1O[C@@H](n2cnc3c(OCCc4ccc(S(C)(=O)=O)cc4)ncnc32)[C@H](O)[C@@H]1O` [Compound 344]: the IC50 is greater than 500 nM. For `CCOc1ccc(CNC(=O)c2ncnc3c2ncn3[C@@H]2O[C@H](C)[C@@H](O)[C@H]2O)cc1` [Compound 350], the concentration for half-maximal inhibition (IC50) is greater than 500 nM. As to `C[C@H]1O[C@@H](n2cnc3c(OCc4c(F)cc(F)cc4F)ncnc32)[C@H](O)[C@@H]1O` [Compound 260], the IC50 was greater than 500 nM. On to `C[C@H]1O[C@@H](n2cnc3c(SCc4ccccc4S(N)(=O)=O)ncnc32)[C@H](O)[C@@H]1O` [Compound 242], for which the half-inhibitory concentration (IC50) was greater than 500 nM.

In the case of `CC1OC(n2c(NC3CCC(C)(O)CC3)nc3c(OCc4ccc([N+](=O)[O-])cc4)ncnc32)C(O)C1O` (single isomer, unassigned) [Compound 118], the IC50 lay within 1 to 20 nM. `Cc1cc(CSc2ncnc3c2ncn3[C@@H]2O[C@H](C)[C@@H](O)[C@H]2O)cc(C)c1F` [Compound 272]: the IC50 was greater than 500 nM. As for `C[C@H]1O[C@@H](n2c(N[C@H]3CC[C@](C)(O)CC3)nc3c(OCc4ccc(Cl)cc4)ncnc32)[C@H](O)[C@@H]1O` [Compound 127], the figure is 20 to 500 nM; as for `C[C@H]1O[C@@H](n2cnc3c(N(C)CCc4ccc([N+](=O)[O-])cc4)ncnc32)[C@H](O)[C@@H]1O` [Compound 324], greater than 500 nM; as for `Cc1cn(C2OC(C)C(O)C2O)c2ncnc(SCc3ccc([N+](=O)[O-])cc3)c12` (single isomer, unassigned) [Compound 286], greater than 500 nM.

As for `COCCCNc1nc2c(N3CCc4ccc(C#N)cc4C3)ncnc2n1[C@@H]1O[C@H](C)[C@@H](O)[C@H]1O` [Compound 160], the IC50 was in the range of 1 to 20 nM. Then `C[C@H]1O[C@@H](n2cnc3c(OCc4cc(Cl)cc(Cl)c4)ncnc32)[C@H](O)[C@@H]1O` [Compound 217], with 20 to 500 nM; and `C[C@H]1O[C@@H](n2cnc3c(OCc4ccc(-c5ccn(C)n5)cc4)ncnc32)[C@H](O)[C@@H]1O` [Compound 383], with greater than 500 nM.

Consider `C[C@H]1O[C@@H](n2c(N[C@H]3CC[C@@](C)(O)CC3)nc3c(OCc4ccc(OC(F)F)cc4)ncnc32)[C@H](O)[C@@H]1O` [Compound 122], for which the IC50 fell in the range of 1 to 20 nM.

With `C[C@H]1O[C@@H](n2c(N[C@H]3CC[C@@H](O)CC3)nc3c(N4CCc5ccccc5C4)ncnc32)[C@H](O)[C@@H]1O` [Compound 195], the 50% inhibitory concentration (IC50) is 20 to 500 nM. Then `C[C@H]1O[C@@H](n2cnc3c(C(=O)N4CCc5ccc([N+](=O)[O-])cc5C4)ncnc32)[C@H](O)[C@@H]1O` [Compound 360], with greater than 500 nM; and `C[C@H]1O[C@@H](n2cnc3c(SCc4cncc(C#N)c4)ncnc32)[C@H](O)[C@@H]1O` [Compound 251], with greater than 500 nM. With `C[C@H]1O[C@@H](n2cnc3c(C(=O)NCc4ccc5c(ccn5C)c4)ncnc32)[C@H](O)[C@@H]1O` [Compound 351], the IC50 was greater than 500 nM. Then `C[C@H]1O[C@@H](n2cnc3c(N4CC(c5ccc([N+](=O)[O-])cc5)C4)ncnc32)[C@H](O)[C@@H]1O` [Compound 209], with 20 to 500 nM; and `C[C@H]1O[C@@H](n2cnc3c(OCc4ccc(-c5cnco5)cc4)ncnc32)[C@H](O)[C@@H]1O` [Compound 291], with greater than 500 nM. `C[C@H]1C[C@@H](n2cnc3c(SCc4ccc([N+](=O)[O-])cc4)ncnc32)[C@H](O)[C@@H]1O` [Compound 214]: the IC50 lay in the range of 20 to 500 nM. Then `C[C@H]1O[C@@H](n2cnc3c(OCCc4cnc(C(F)F)nc4)ncnc32)[C@H](O)[C@@H]1O` [Compound 404], with greater than 500 nM; and `C[C@H]1O[C@@H](n2cnc3c(COc4ccc(Cl)cc4)ncnc32)[C@H](O)[C@@H]1O` [Compound 285], with greater than 500 nM. As for `C[C@H]1O[C@@H](n2cnc3c(OCc4ccc(-n5ccnc5)cc4)ncnc32)[C@H](O)[C@@H]1O` [Compound 316], the figure is greater than 500 nM. Then `CN(C)C(=O)[C@H]1O[C@@H](n2cnc3c(OCc4ccc([N+](=O)[O-])cc4)ncnc32)[C@H](O)[C@@H]1O` [Compound 329], with greater than 500 nM; and `C[C@H]1O[C@@H](n2cnc3c(OCc4ccc(Cl)c(Cl)c4)ncnc32)[C@H](O)[C@@H]1O` [Compound 226], with greater than 500 nM; and `CNC(=O)[C@H]1O[C@@H](n2cnc3c(OCc4ccc([N+](=O)[O-])cc4)ncnc32)[C@H](O)[C@@H]1O` [Compound 279], with greater than 500 nM. `Cc1cc(COc2ncnc3c2nc(NC2CCCC2)n3[C@@H]2O[C@H](C)[C@@H](O)[C@H]2O)ccn1` [Compound 15]: the concentration for half-maximal inhibition (IC50) lay in the range of 20 to 500 nM. Turning to `C[C@H]1O[C@@H](n2cnc3c(NCc4cccc(C(F)F)c4)ncnc32)[C@H](O)[C@@H]1O` [Compound 318], the IC50 was greater than 500 nM. For the molecule `C[C@H]1O[C@@H](n2cnc3c(NS(=O)(=O)Cc4ccc([N+](=O)[O-])cc4)ncnc32)[C@H](O)[C@@H]1O` [Compound 407], the IC50 is greater than 500 nM. Then `CC(CCO)Nc1nc2c(OCc3ccc(Cl)cc3)ncnc2n1[C@@H]1O[C@H](C)[C@@H](O)[C@H]1O` (stereo partly drawn) [Compound 97], with 1 to 20 nM.

With `O=[N+]([O-])c1ccc(COc2ncnc3c2nc(NC2CCCC2)n3[C@@H]2O[C@H](COCCO)[C@@H](O)[C@H]2O)cc1` [Compound 135], the IC50 fell in the range of 20 to 500 nM. Then `C[C@H]1O[C@@H](n2c(NC3CCOCC3)nc3c(N4CCc5ccccc5C4)ncnc32)[C@H](O)[C@@H]1O` [Compound 170], with 20 to 500 nM; and `C[C@H]1O[C@@H](n2cnc3c(C(=O)NCc4ccc([N+](=O)[O-])cc4)ncnc32)[C@H](O)[C@@H]1O` [Compound 312], with greater than 500 nM; and `O=[N+]([O-])c1ccc(COc2ncnc3c2ncn3[C@@H]2O[C@H](COCCO)[C@@H](O)[C@H]2O)cc1` [Compound 191], with 20 to 500 nM. As for `COc1ccc(COc2ncnc3c2ncn3[C@@H]2O[C@H](C)[C@@H](O)[C@H]2O)cc1C(F)(F)F` [Compound 230], the 50% inhibitory concentration (IC50) was greater than 500 nM. Then `C[C@H]1O[C@@H](n2cnc3c(OCc4cccc(C(F)(F)F)c4)ncnc32)[C@H](O)[C@@H]1O` [Compound 274], with greater than 500 nM. As for `O=[N+]([O-])c1ccc(COc2ncnc3c2ncn3[C@@H]2O[C@H](CCO)[C@@H](O)[C@H]2O)cc1` [Compound 229], the half-maximal inhibitory concentration (IC50) was greater than 500 nM.
